We go through 35 compounds from publication PMC9036655 (RSC Advances, 2021).

In assay [1] the test system is M. tuberculosis H37Rv. Kind of assay: Antimycobacterial activity against M. tuberculosis H37Rv. Type of assay: cell-based, Mycobacterium tuberculosis. To be noted: for inhibition at 50 µg/mL / inhibition at 20 µg/mL: Mycobacterium tuberculosis, H37RV; for inhibition at 50 µg/mL: read-out: % inhibition 50 μg mL^−1, M. tuberculosis H37Rv, 50 μg mL^−1; for inhibition at 20 µg/mL: read-out: % inhibition 20 μg mL^−1, M. tuberculosis H37Rv; for inhibition at 20 µg/mL / % inhibition 20 μg mL^−1: 20 μg mL^−1.

The test system of assay [2] is A549 cells. As to the kind of experiment: Cytotoxicity, MTT assay, A549 cells. Type of assay: cell-based, Human. The conditions noted are these: for IC50: Homo sapiens, A549, 72 h, read-out: IC50 A549; for Selectivity index A549: IC50(A549)/MIC M. tb.
Assay [3] deals with Vero cells. Kind of assay: Cytotoxicity, MTT assay, Vero cells. Type of assay: cell-based, African green monkey. To be noted: IC50(Vero)/MIC M. tb.

Turning to “4-Methyl-3-(((1-(4-(trifluoromethoxy)benzoyl)piperidin-4-yl)amino)methyl)-5,6,7,8-tetrahydroquinolin-2(1H)-one [6d10]”, the minimum inhibitory concentration (MIC) in assay [1] (M. tuberculosis H37Rv, MIC90, average of three measurements) is over 50 µg/mL.

As for `Cc1[nH]c(=O)c(CNC(=O)c2ccc([N+](=O)[O-])s2)c2c1CCC2` [6a1, N-((1-Methyl-3-oxo-3,5,6,7-tetrahydro-2H-cyclopenta[c]pyridin-4-yl)methyl)-5-nitrothiophene-2-carboxamide], the inhibition at 50 µg/mL in assay [1] turned out to be 53%.

On to `Cc1[nH]c(=O)c(CNC(=O)c2ccc(F)nc2)c2c1CCC2` [6a2, 6-Fluoro-N-((1-methyl-3-oxo-3,5,6,7-tetrahydro-2H-cyclopenta[c]pyridin-4-yl)methyl)nicotinamide], for which the inhibition at 50 µg/mL in assay [1] was 14%.

On to `COc1cc(OC)cc(-c2ccc(C(=O)NCc3c4c(c(C)[nH]c3=O)CCCC4)cc2)c1` [6b6, 3′,5′-Dimethoxy-N-((1-methyl-3-oxo-2,3,5,6,7,8-hexahydroisoquinolin-4-yl)methyl)-[1,1′-biphenyl]-4-carboxamide], for which, in assay [2], the concentration for half-maximal inhibition (IC50) is over 100 µg/mL and the “Selectivity index A549” value is recorded as over 33. In addition, in assay [3], the “Selectivity index Vero” value is listed as over 16.

As to `Cc1[nH]c(=O)c(CNC(=O)c2ccc(Cl)nc2)c2c1CCCC2` [6b24, 6-Chloro-N-((1-methyl-3-oxo-2,3,5,6,7,8-hexahydroisoquinolin-4-yl)methyl)nicotinamide], the inhibition at 20 µg/mL in assay [1] came to 98.3%.

Take `Cc1[nH]c(=O)c(CNC(=O)c2ccc(Br)nc2)c2c1CCCC2` [6b25, 6-Bromo-N-((1-methyl-3-oxo-2,3,5,6,7,8-hexahydroisoquinolin-4-yl)methyl)nicotinamide]: the inhibition at 20 µg/mL in assay [1] was determined as 98.9%.

With `Cc1[nH]c(=O)c(CNC(=O)c2ccc(F)nc2)c2c1CCCC2` [6b26, 6-Fluoro-N-((1-methyl-3-oxo-2,3,5,6,7,8-hexahydroisoquinolin-4-yl)methyl)nicotinamide], the inhibition at 20 µg/mL in assay [1] turned out to be 94.1%. In assay [2], the IC50 is over 100 µg/mL and the “Selectivity index A549” value is recorded as over 63. The “Selectivity index Vero” value in assay [3] is on record as over 31.

`Cc1ccc(C(=O)NCc2c3c(c(C)[nH]c2=O)CCCC3)cn1` [6b27, 6-Methyl-N-((1-methyl-3-oxo-2,3,5,6,7,8-hexahydroisoquinolin-4-yl)methyl)nicotinamide]: in assay [1], the inhibition at 20 µg/mL came out at 98.6%.

As for `Cc1[nH]c(=O)c(CNC(=O)c2ccc([N+](=O)[O-])nc2)c2c1CCCC2` [6b28, N-((1-Methyl-3-oxo-2,3,5,6,7,8-hexahydroisoquinolin-4-yl)methyl)-6-nitronicotinamide], the inhibition at 20 µg/mL in assay [1] was 98.9%.

Consider `Cc1[nH]c(=O)c(CNC(=O)c2cc([N+](=O)[O-])co2)c2c1CCCC2` [6b30, N-((1-Methyl-3-oxo-2,3,5,6,7,8-hexahydroisoquinolin-4-yl)methyl)-4-nitrofuran-2-carboxamide], for which the inhibition at 20 µg/mL in assay [1] stood at 78.2%.

With `Cc1[nH]c(=O)c(CNC(=O)c2ccc(Br)o2)c2c1CCCC2` [6b31, 5-Bromo-N-((1-methyl-3-oxo-2,3,5,6,7,8-hexahydroisoquinolin-4-yl)methyl)furan-2-carboxamide], the inhibition at 20 µg/mL in assay [1] worked out at 97.7%.

As to `Cc1[nH]c(=O)c(CNC(=O)c2ccc([N+](=O)[O-])s2)c2c1CCCC2` [6b32, N-((1-Methyl-3-oxo-2,3,5,6,7,8-hexahydroisoquinolin-4-yl)methyl)-5-nitrothiophene-2-carboxamide], in assay [1], the inhibition at 20 µg/mL came to 96.4%.

On to `Cc1[nH]c(=O)c(CNC(=O)c2cn[nH]c2)c2c1CCCC2` [6b35, N-((1-Methyl-3-oxo-2,3,5,6,7,8-hexahydroisoquinolin-4-yl)methyl)-1H-pyrazole-4-carboxamide], for which the inhibition at 20 µg/mL in assay [1] came to 94.6%.

Turning to `Cc1[nH]c(=O)c(CNC(=O)c2ccno2)c2c1CCCC2` [6b36, N-((1-Methyl-3-oxo-2,3,5,6,7,8-hexahydroisoquinolin-4-yl)methyl)isoxazole-5-carboxamide], the inhibition at 20 µg/mL in assay [1] was determined as 25.1%.

Regarding `Cc1[nH]c(=O)c(CNC(=O)c2ccc(Br)nc2)c2c1CCCCC2` [6c1, 6-Bromo-N-((1-methyl-3-oxo-3,5,6,7,8,9-hexahydro-2H-cyclohepta[c]pyridin-4-yl)methyl)nicotinamide], the inhibition at 50 µg/mL in assay [1] was 33%.

Consider `Cc1c2c([nH]c(=O)c1CNC(=O)c1ccc([N+](=O)[O-])s1)CCCC2` [6d5, N-((4-Methyl-2-oxo-1,2,5,6,7,8-hexahydroquinolin-3-yl)methyl)-5-nitrothiophene-2-carboxamide], for which the inhibition at 50 µg/mL in assay [1] was determined as 100%.

`COc1cc(OC)cc(C(=O)NCc2c(C)c3c([nH]c2=O)CCCC3)c1` [6d6, 3,5-Dimethoxy-N-((4-methyl-2-oxo-1,2,5,6,7,8-hexahydroquinolin-3-yl)methyl)benzamide]: in assay [1], the inhibition at 50 µg/mL was determined as 100%.

For `Cc1c2c([nH]c(=O)c1CNC(=O)c1ccc(C(F)(F)F)nc1Cl)CCCC2` [6d7, 2-Chloro-N-((4-methyl-2-oxo-1,2,5,6,7,8-hexahydroquinolin-3-yl)methyl)-6-(trifluoromethyl)nicotinamide], the inhibition at 50 µg/mL in assay [1] worked out at 99%.

As to `Cc1c2c([nH]c(=O)c1CNC(=O)c1ccc(-c3ccc(C(F)(F)F)nc3)cc1)CCCC2` [6d9, N-((4-Methyl-2-oxo-1,2,5,6,7,8-hexahydroquinolin-3-yl)methyl)-4-(6-(trifluoromethyl)pyridin-3-yl)benzamide], in assay [1], the inhibition at 50 µg/mL amounted to 18%.

`COc1cc(OC)cc(-c2ccc(C(=O)NCc3c(C)cc(C4CC4)[nH]c3=O)cc2)c1` [7a2, N-((6-Cyclopropyl-4-methyl-2-oxo-1,2-dihydropyridin-3-yl)methyl)-3′,5′-dimethoxy-[1,1′-biphenyl]-4-carboxamide]: the inhibition at 20 µg/mL in assay [1] came out at 21%.

As for `COc1cc(OC)cc(-c2ccc(C(=O)NCc3c(C)cc(-c4ccccc4)[nH]c3=O)cc2)c1` [7b2, 3′,5′-Dimethoxy-N-((4-methyl-2-oxo-6-phenyl-1,2-dihydropyridin-3-yl)methyl)-[1,1′-biphenyl]-4-carboxamide], the inhibition at 20 µg/mL in assay [1] is 33%.

Turning to `Cc1cc(C)c(CNC(=O)c2ccc([N+](=O)[O-])o2)c(=O)[nH]1` [8a1, N-((4,6-Dimethyl-2-oxo-1,2-dihydropyridin-3-yl)methyl)-5-nitrofuran-2-carboxamide], in assay [1], the inhibition at 20 µg/mL was 75.3%.

As for `CCc1cc(CC)c(CNC(=O)c2ccc([N+](=O)[O-])o2)c(=O)[nH]1` [8a3, N-((4,6-Diethyl-2-oxo-1,2-dihydropyridin-3-yl)methyl)-5-nitrofuran-2-carboxamide], the inhibition at 20 µg/mL in assay [1] was determined as 98.1%.

Regarding `Cc1cc(C)c(CNC(=O)c2ccc(C(F)(F)F)cc2)c(=O)[nH]1` [8a4, N-((4,6-Dimethyl-2-oxo-1,2-dihydropyridin-3-yl)methyl)-4-(trifluoromethyl)benzamide], in assay [1], the inhibition at 20 µg/mL was determined as 87.6%.

For the compound `CCc1cc(CC)c(CNC(=O)c2ccc(C(F)(F)F)nc2)c(=O)[nH]1` [8a5, N-((4,6-Diethyl-2-oxo-1,2-dihydropyridin-3-yl)methyl)-6-(trifluoromethyl)nicotinamide], the inhibition at 20 µg/mL in assay [1] came out at 94.4%.

As to `Cc1c(CNC(=O)c2ccc(C(F)(F)F)nc2)c(=O)[nH]c2ccccc12` [9a1, N-((4-Methyl-2-oxo-1,2-dihydroquinolin-3-yl)methyl)-6-(trifluoromethyl)nicotinamide], in assay [1], the inhibition at 50 µg/mL came to 2%.

`COc1cc(OC)cc(-c2ccc(C(=O)NCc3c(C)c4ccccc4[nH]c3=O)cc2)c1` [9a2, 3′,5′-Dimethoxy-N-((4-methyl-2-oxo-1,2-dihydroquinolin-3-yl)methyl)-[1,1′-biphenyl]-4-carboxamide]: in assay [1], the inhibition at 50 µg/mL is 15%.

Regarding `Cc1c(CNC(=O)c2ccc(-c3ccc(C(F)(F)F)nc3)cc2)c(=O)[nH]c2ccccc12` [9a3, N-((4-Methyl-2-oxo-1,2-dihydroquinolin-3-yl)methyl)-4-(6-(trifluoromethyl)pyridin-3-yl)benzamide], the inhibition at 50 µg/mL in assay [1] is 13%.

`Cc1c(CNC(=O)c2cnc(C(F)(F)F)nc2)c(=O)[nH]c2ccccc12` [9a4, N-((4-Methyl-2-oxo-1,2-dihydroquinolin-3-yl)methyl)-2-(trifluoromethyl)pyrimidine-5-carboxamide]: the inhibition at 50 µg/mL in assay [1] is 3%.

In the case of `Cc1[nH]c(=O)c(CNCc2ccc(C(F)(F)F)cc2)c2c1CCCC2` [10a1, 1-Methyl-4-(((4-(trifluoromethyl)benzyl)amino)methyl)-5,6,7,8-tetrahydroisoquinolin-3(2H)-one], the inhibition at 20 µg/mL in assay [1] stood at 65.7%.

In the case of `Cc1[nH]c(=O)c(CNS(=O)(=O)c2ccc(C(F)(F)F)nc2)c2c1CCCC2` [10a2, N-((1-Methyl-3-oxo-2,3,5,6,7,8-hexahydroisoquinolin-4-yl)methyl)-6-(trifluoromethyl)pyridine-3-sulfonamide], in assay [1], the inhibition at 20 µg/mL is 92.7%.

As for `Cc1[nH]c(=O)c(C(=O)Nc2ccc(C(F)(F)F)cc2)c2c1CCCC2` [10a4, 1-Methyl-3-oxo-N-(4-(trifluoromethyl)phenyl)-2,3,5,6,7,8-hexahydroisoquinoline-4-carboxamide], the inhibition at 20 µg/mL in assay [1] amounted to 36.8%.

For `Cc1[nH]c(=O)c(CNC(=O)Cc2ccc(C(F)(F)F)cc2)c2c1CCCC2` [10a5, N-((1-Methyl-3-oxo-2,3,5,6,7,8-hexahydroisoquinolin-4-yl)methyl)-2-(4-(trifluoromethyl)phenyl)acetamide], the inhibition at 20 µg/mL in assay [1] was found to be 99.3%.

For `NNC(=O)c1ccncc1` [Isoniazid, reference compound], the “% inhibition 20 μg mL^−1” value in assay [1] (M. tuberculosis H37Rv) stood at 99.4%. In assay [1], the inhibition at 20 µg/mL amounted to 98.9% and the inhibition at 50 µg/mL was determined as 98.9%.

Turning to “N-((6-Ethyl-4-methyl-2-oxo-1,2-dihydropyridin-3-yl)methyl)-5-nitrofuran-2-carboxamide [8a2]”, the “% inhibition 20 μg mL^−1” value in assay [1] (M. tuberculosis H37Rv) is recorded as 98.2%.
